Activity calls are given as the source filed them. The calls are words filed in the database; no cut-off is given here.
Columns and labels:
T cell [1] = assay: Inhibition of anti-human CD3/CD28/mAbs-stimulated human T-cell proliferation at 30 uM after 72 hrs by CFSE staining based flow cytometric analysis; format: functional, tissue-based
[2] = (§1) Inhibition of anti-human CD3/CD28/mAbs-stimulated human T-cell proliferation after 72 hrs by CFSE staining based flow cytometric analysis; format: functional, tissue-based
T cell [3] = assay: as §1; format: functional, tissue-based
[4] = Cytotoxicity against human T-cell assessed reduction in cell viability at 10 uM after 72 hrs; format: tissue-based
[5] = Cytotoxicity against human T-cell assessed reduction in cell viability at 30 uM after 72 hrs; format: tissue-based

## COc1ccc([C@@H]2CC(=O)c3c(O)cc(O[C@@H]4O[C@H](CO[C@@H]5O[C@@H](C)[C@H](O)[C@@H](O)[C@H]5O)[C@@H](O)[C@H](O)[C@H]4O)cc3O2)cc1O
T cell [1]
  inhibition: Active

## COc1cc2oc(=O)ccc2c(OC)c1C(=O)O
T cell [1]
  inhibition: Active

## COc1cc2oc(=O)ccc2c(OC)c1CC(O[C@@H]1O[C@H](CO)[C@@H](O)[C@H](O)[C@H]1O)C(C)(C)O (some centres undefined)
T cell [1]
  inhibition: Active

## COc1cc2oc(=O)ccc2c(OC)c1C[C@H](O)C(C)(C)O[C@@H]1O[C@H](CO)[C@@H](O)[C@H](O)[C@H]1O
T cell [1]
  inhibition: Active

## COc1cc2oc(=O)ccc2c(OC)c1C[C@@H](O)C(C)(C)O[C@@H]1O[C@H](CO)[C@@H](O)[C@H](O)[C@H]1O
T cell [1]
  inhibition: Active

## COc1cc(/C=C/C(=O)OC[C@H]2O[C@@H](OC[C@@H](Cc3cc(OC)c(O)c(OC)c3)[C@@H](CO)Cc3cc(OC)c(O)c(OC)c3)[C@H](O)[C@@H](O)[C@@H]2O)cc(OC)c1O
T cell [1]
  inhibition: Active

## COc1cc2c[n+](C)c3c4cc5c(cc4ccc3c2cc1OC)OCO5.[Cl-] [NITIDINE CHLORIDE]
[2]
  IC50: 0.4 µM
T cell [3]
  inhibition: Dose-dependent effect
[4]
  Activity: Toxic
[5]
  Activity: Toxic

## COc1cc2oc(=O)ccc2c(OC)c1CC(O)C(C)(C)O (centres undefined)
T cell [1]
  inhibition: Active

## O=C(/C=C/c1ccc(O)cc1)NCCc1ccc(O)cc1
T cell [1]
  inhibition: Active

## COc1ccc2c(c1OC)CN(C)CCc1cc3c(cc1C(=O)C2)OCO3
T cell [1]
  inhibition: Active

## COc1cc(/C=C/C(=O)OC[C@H]2O[C@@H](OC[C@H]3[C@H](CO)Cc4cc(OC)c(O)c(OC)c4[C@@H]3c3cc(OC)c(O)c(OC)c3)[C@H](O)[C@@H](O)[C@@H]2O)cc(OC)c1O
T cell [1]
  inhibition: Active

## COc1cc(O)c(CCC(=O)O)c(OC)c1CC(O)C(C)(C)O (centres undefined)
T cell [1]
  inhibition: Active

## COc1cc(C(=O)O)cc(OC)c1O
T cell [1]
  inhibition: Active

## COc1cc2c(cc1OC)-c1ccc3cc4c(cc3c1N(C)C2)OCO4
[2]
  IC50: 6.7 µM
T cell [3]
  inhibition: Dose-dependent effect
[5]
  Activity: Toxic

Source: ChEMBL document CHEMBL4699533, “Compounds from Toddalia asiatica: Immunosuppressant Activity and Absolute Configurations” (J Nat Prod, 2020)
